Consider one compound from patent US20080293814A1, “CONCENTRATE ESMOLOL” (priority 2007, published 2008).

The data set is described as follows: pH dependence of esmolol degradation in solution. It counts as physicochemical. How it is done: While lower concentration (e.g., 10 mg/ml) ready-to-use compositions of esmolol require an additional buffer to maintain pH, higher concentrations of esmolol in the present invention compositions, provide self-buffering capacity to the composition. […] The concentrate can include a pharmaceutically acceptable buffer to aid in maintaining the pH in a range of from about 3.5 to about 7.0. Preferably, the pH is maintained between about 4.5 and about 5.5, more preferably between 4.9 and 5.1.

Structures can show the parent of a compound that is named as a salt.

With `COC(=O)CCc1ccc(OCC(O)CNC(C)C)cc1` (stereo not shown) [esmolol, methyl-3-[4-(2-hydroxy-3-isopropylamino)propoxy]phenylpropionate hydrochloride], the “pH at which esmolol is most stable” value is on record as “about 5.0”.
